According to patent US20190030046A1, “USE OF PURE COMPOUNDS EXTRACTED FROM ANTRODIA CAMPHORATA” (priority 2016, published 2019):

Columns and labels:
membrane GLUT4 [1] = experiment: Membrane GLUT4 protein expression in C2C12 myotube cells (Western blot); type: cell-based; conditions: 1, 5, 10, and 25 μg/mL, 25 min
Procedure: In the present invention, C2C12 skeletal myoblasts (ATCC, CRL-1772) were maintained in growth media consisting of Dulbecco's modified Eagle's medium (DMEM) (Gibco BRL) and supplemented with 10% Fetal Bovine Serum (FBS) (Hyclone) and 100 U/mL penicillin/100 μg/mL streptomycin (Gibco BRL), and split 1:4 using 0.05% trypsin when 80% confluent. Myoblasts were diluted and placed in a 9 cm-diameter dish. Cells were cultured to achieve 80%-90% confluency and then the growth media was changed as 2% FBS/DMEM every 24 h for 5-7 days.
In experiments for determining GLUT4 and p-Akt(Ser473)/t-Akt proteins in tubes, differentiated C2C12 cells were serum-starved in DMEM/BSA for 2 h at 37° C. prior to incubation with MeOH crude extract (at 20, 100, 200, and 500 μg/mL), test compounds (at 1, 5, 10, and 25 μg/mL), or vehicle for 25 min, or 100 nM insulin for 25 min.
The cultures obtained by cell culture above were centrifuged, and the resulting pellet was resuspended in a homogenization buffer. The forgoing steps were performed with a filtration membrane. Protein concentrations were measured using a BCA assay (Pierce). Equal amounts of protein were diluted four times in SDS sample buffer, and subjected to SDS PAGE and Western blotting with antibodies specific for Akt, p-Akt Ser^473, and GLUT4. Density blotting analysis was performed using Alpha Easy FC software.

[2] = HFD-induced diabetic mice: absolute tissue weight, body weight, food intake; type: in vivo, C57BL/6J mice; conditions: 4 weeks; for Absolute tissue weight: Visceral fat: EWAT plus RWAT
Description: (§1) The difference indicates the daily food intake.

11β-HSD1 = experiment: Semiquantitative RT-PCR in liver tissue: 11β-HSD1; type: in vivo, C57BL/6J mice; conditions: vs HF, 4 weeks
Procedure: as §1
(§2) Total RNA from liver tissue was isolated with a Trizol Reagent (Molecular Research Center, Inc., Cincinnati, Ohio, USA) according to the manufacturer's instructions. The integrity of the extracted total RNA was examined by 2% agarose gel electrophoresis, and the RNA concentration was determined by […] ultraviolet (UV) light absorbency at 260 nm and 280 nm (Spectrophotometer U-2800A, Hitachi). The total RNA (1 μg) was reverse transcribed to cDNA, and 5 μL Moloney murine leukemia virus reverse transcriptase (TEpicentre, Madison, Wis., USA). The PCR was performed in a final 25 μL containing 1 U Blend Taq-Plus (TOYOBO, Japan), 10 μL of the RT cDNA product, 10 μM of each forward (F) and reverse (R) primer, 75 mM Tris-HCL (pH 8.3) containing 1 mg/L Tween 20 (pH 8.3, also known as polyoxyethylene sorbitan monolaurate), 2.5 mM dNTP (deoxy-ribonucleoside triphosphate), and 2 mM MgCl2 (magnesium chloride). The PCR products were analyzed by 2% agarose gel and stained with ethidium bromide.

aP2 = experiment: Semiquantitative RT-PCR in liver tissue: aP2; type: in vivo, C57BL/6J mice; conditions: vs HF, 4 weeks
Procedure: as §1, §2

GPAT = experiment: Semiquantitative RT-PCR in liver tissue: GPAT; type: in vivo, C57BL/6J mice; conditions: vs HF, 4 weeks
Procedure: as §1, §2

UCP3 = experiment: Semiquantitative RT-PCR in liver tissue: UCP3; type: in vivo, C57BL/6J mice; conditions: vs HF, 4 weeks
Procedure: as §1, §2

membrane GLUT4 [3] = experiment: Western blot of skeletal muscle membrane GLUT4 in HFD mice; conditions: compared to HF, 4 weeks
Procedure: (§3) The HFD mice were subdivided into 6 groups (9 per group) followed by 8-week induction. […] Following four-week treatment and feeding, the food was removed, and the mice were fasted for 12 h and then sacrificed. Tissue samples required were collected from the mice and weighted. Some of the tissue samples were immediately stored at −80° C. and frozen for subsequent target gene analysis. Plasma samples were collected via centrifugation of whole blood at 1600×g for 15 min at 4° C., followed by plasma separation within 30 min.
(§4) We determined PPARα and FAS protein expression levels in liver tissue, PPARγ and FAS protein expression levels in adipose tissue, and membrane GLUT4 expression in skeletal muscle adipose. The total membrane fraction was collected with the buffer and determined as previously described. The membrane GLUT4, p-AMPK, and total AMPK protein content were determined by Western Blotting as previously described.

FAS = experiment: Western blot of FAS protein in liver and adipose tissue of HFD mice; conditions: compared to HF, 4 weeks
Procedure: as §3, §4

[4] = HFD-induced diabetic mice: fasting blood glucose and biochemical indexes; conditions: 4 weeks; for Blood glucose: 12 h fasted HFD mice; for Plasma FFA / Insulin / Leptin / TC / TG: HFD mice; for Insulin / Leptin: blood; for TC / TG: plasma
Procedure: The control group and HFD group contained 10% and 45% fat intake, respectively. The HFD mice were subdivided into 6 groups (9 per group) followed by 8-week induction. […] During the experiment, all mice were fasted overnight, and blood samples were collected from the retro-orbital sinus. Following four-week treatment and feeding, the food was removed, and the mice were fasted for 12 h and then sacrificed. Tissue samples required were collected from the mice and weighted. Some of the tissue samples were immediately stored at −80° C. and frozen for subsequent target gene analysis. Plasma samples were collected via centrifugation of whole blood at 1600×g for 15 min at 4° C., followed by plasma separation within 30 min. Some plasma samples obtained were used for TG and TC analysis. The metabolic parameters, including body weight, weight gain, and food intake, were performed as follows. Body weight was daily measured throughout the study. Body weight gain is considered as the difference between one day and the next day. The total weight of food intake was daily measured, followed by weighing the amount of remaining feed after 24 h. The difference indicates the daily food intake.
One part of the forgoing blood samples collected from the retro-orbital sinus of 12 h fasted mice was immediately used for analysis of glucose levels. The other part was used for analysis of blood TG, TC, free fatty acids, blood insulin, leptin, and adiponectin levels. Blood glucose levels were determined by a glucose analyzer (Model 1500 sidekick glucose analyzer, YSI). Plasma triglycerides (TG), total cholesterol (TC), and free fatty acids (FFA) were determined using commercial kits in accordance with manufacturer's instructions (Triglycerides-E test, Cholesterol-E test, and FFA-C test; Wako Pure Chemical, Osaka, Japan). Insulin and leptin levels were measured by enzyme-linked immunosorbent assay (ELISA) (mouse insulin ELISA kit, Mercodia, Uppsala, Sweden; mouse leptin ELISA kit, Morinaga, Yokohama, Japan).

phospho-AMPK(Thr172) = experiment: Western blot of phospho-AMPK(Thr172)/total-AMPK in skeletal muscle and liver of HFD mice; conditions: compared to HF, 4 weeks
Procedure: as §3, §4

## C=C(CC[C@@H](C(=O)O)[C@H]1CC[C@@]2(C)C3=CC[C@H]4C(C)(C)[C@@H](O)CC[C@]4(C)C3=CC[C@]12C)C(C)C [TT, dehydroeburicoic acid]
Membrane GLUT4 [1]
  protein expression level of membrane GLUT4: increase
[2]; HF+TT1, 10 mg/kg/day oral
  Absolute tissue weight: Visceral fat: 1142.9 mg
  Absolute tissue weight: Brown adipose tissue (BAT): 228.6 mg
  Absolute tissue weight: Epididymal white adipose tissue (EWAT): 798.9 mg
  Absolute tissue weight: Liver: 848.3 mg
  Absolute tissue weight: Mesenteric white adipose tissue (MWAT): 361.3 mg
  Absolute tissue weight: Retroperitoneal white adipose tissue (RWAT): 343.9 mg
  Absolute tissue weight: Spleen: 77.7 mg
  Final body weight: 27.52 g
  Food intake: 2.21 g/day/mouse
  Weight gain: 2.24 g
[2]; HF+TT2, 20 mg/kg/day oral
  Absolute tissue weight: Visceral fat: 1116.2 mg
  Absolute tissue weight: Brown adipose tissue (BAT): 197.3 mg
  Absolute tissue weight: Epididymal white adipose tissue (EWAT): 784.3 mg
  Absolute tissue weight: Liver: 841.8 mg
  Absolute tissue weight: Mesenteric white adipose tissue (MWAT): 340.9 mg
  Absolute tissue weight: Retroperitoneal white adipose tissue (RWAT): 331.9 mg
  Absolute tissue weight: Spleen: 81.5 mg
  Final body weight: 26.47 g
  Food intake: 2.16 g/day/mouse
  Weight gain: 0.89 g
[2]; HF+TT3, 40 mg/kg/day oral
  Absolute tissue weight: Visceral fat: 979.3 mg
  Absolute tissue weight: Brown adipose tissue (BAT): 198.1 mg
  Absolute tissue weight: Epididymal white adipose tissue (EWAT): 667.8 mg
  Absolute tissue weight: Liver: 802.8 mg
  Absolute tissue weight: Mesenteric white adipose tissue (MWAT): 304.6 mg
  Absolute tissue weight: Retroperitoneal white adipose tissue (RWAT): 311.4 mg
  Absolute tissue weight: Spleen: 82.3 mg
  Final body weight: 26.53 g
  Food intake: 2.07 g/day/mouse
  Weight gain: 0.83 g
11β-HSD1; HF+TT1, 10 mg/kg/day oral
  11β-HSD1 mRNA expression level in liver: decreased
11β-HSD1; HF+TT2, 20 mg/kg/day oral
  11β-HSD1 mRNA expression level in liver: decreased
11β-HSD1; HF+TT3, 40 mg/kg/day oral
  11β-HSD1 mRNA expression level in liver: decreased
aP2; HF+TT1, 10 mg/kg/day oral
  aP2 mRNA expression level in liver: decreased
aP2; HF+TT2, 20 mg/kg/day oral
  aP2 mRNA expression level in liver: decreased
aP2; HF+TT3, 40 mg/kg/day oral
  aP2 mRNA expression level in liver: decreased
GPAT; HF+TT1, 10 mg/kg/day oral
  GPAT mRNA expression level in liver: decreased
GPAT; HF+TT2, 20 mg/kg/day oral
  GPAT mRNA expression level in liver: decreased
GPAT; HF+TT3, 40 mg/kg/day oral
  GPAT mRNA expression level in liver: decreased
UCP3; HF+TT2, 20 mg/kg/day oral
  UCP3 mRNA expression level in liver: increased
UCP3; HF+TT3, 40 mg/kg/day oral
  UCP3 mRNA expression level in liver: increased
Membrane GLUT4 [3]; HF+TT1, 10 mg/kg/day oral
  membrane expression level of GLUT4 in skeletal muscle: significantly increased
Membrane GLUT4 [3]; HF+TT2, 20 mg/kg/day oral
  membrane expression level of GLUT4 in skeletal muscle: significantly increased
Membrane GLUT4 [3]; HF+TT3, 40 mg/kg/day oral
  membrane expression level of GLUT4 in skeletal muscle: significantly increased
FAS; HF+TT1, 10 mg/kg/day oral
  FAS protein expression level in adipose tissue: significantly decreased
  FAS protein expression level in liver: significantly decreased
FAS; HF+TT2, 20 mg/kg/day oral
  FAS protein expression level in adipose tissue: significantly decreased
  FAS protein expression level in liver: significantly decreased
FAS; HF+TT3, 40 mg/kg/day oral
  FAS protein expression level in adipose tissue: significantly decreased
  FAS protein expression level in liver: significantly decreased
[4]; HF+TT1, 10 mg/kg/day oral
  Blood glucose: 90.44 mg/dL
  Plasma FFA: 0.95 meq/L
  Insulin: 2.982 µg/L
  Leptin: 9.827 ng/mL
  TC: 120.55 mg/dL
  TG: 84.85 mg/dL
[4]; HF+TT2, 20 mg/kg/day oral
  Blood glucose: 82.89 mg/dL
  Plasma FFA: 0.87 meq/L
  Insulin: 2.625 µg/L
  Leptin: 8.468 ng/mL
  TC: 114.93 mg/dL
  TG: 83.63 mg/dL
[4]; HF+TT3, 40 mg/kg/day oral
  Blood glucose: 77.78 mg/dL
  Plasma FFA: 0.81 meq/L
  Insulin: 2.190 µg/L
  Leptin: 6.439 ng/mL
  TC: 112.46 mg/dL
  TG: 82.31 mg/dL
phospho-AMPK(Thr172); HF+TT1, 10 mg/kg/day oral
  expression level of p-AMPK/t-AMPK proteins in liver: significantly increased
  expression level of phospho-AMPK/total-AMPK in skeletal muscle: significantly increased
phospho-AMPK(Thr172); HF+TT2, 20 mg/kg/day oral
  expression level of p-AMPK/t-AMPK proteins in liver: significantly increased
  expression level of phospho-AMPK/total-AMPK in skeletal muscle: significantly increased
phospho-AMPK(Thr172); HF+TT3, 40 mg/kg/day oral
  expression level of p-AMPK/t-AMPK proteins in liver: significantly increased
  expression level of phospho-AMPK/total-AMPK in skeletal muscle: significantly increased
